Test results as given in ChEMBL document CHEMBL4837183, “Antiproliferative Bufadienolides from the Bulbs of Drimia altissima” (2021).
Each block holds one compound with its values, some of them ahead of it.

Columns and labels:
Assay type in all cases: functional
NCI/ADR-RES = assay: Growth inhibition of human NCI/ADR-RES cells measured after 48 hrs by SRB assay
SF-295 = assay: Growth inhibition of human SF-295 cells measured after 48 hrs by SRB assay
MDA-MB-468 = assay: Growth inhibition of human MDA-MB-468 cells measured after 48 hrs by SRB assay
HOP-92 = assay: Growth inhibition of human HOP-92 cells measured after 48 hrs by SRB assay
Malme-3M = assay: Growth inhibition of human Malme-3M cells measured after 48 hrs by SRB assay
MDA-MB-435 = assay: Growth inhibition of human MDA-MB-435 cells measured after 48 hrs by SRB assay
SK-MEL-5 = assay: Growth inhibition of human SK-MEL-5 cells measured after 48 hrs by SRB assay
KM12 = assay: Growth inhibition of human KM12 cells measured after 48 hrs by SRB assay
Hs-578T = assay: Growth inhibition of human Hs-578T cells measured after 48 hrs by SRB assay
SW-620 = assay: Growth inhibition of human SW-620 cells measured after 48 hrs by SRB assay
ACHN = assay: Growth inhibition of human ACHN cells measured after 48 hrs by SRB assay
LOX IMVI = assay: Growth inhibition of human LOX IMVI cells measured after 48 hrs by SRB assay
SNB-75 = assay: Growth inhibition of human SNB-75 cells measured after 48 hrs by SRB assay
NCI-H23 = assay: Growth inhibition of human NCI-H23 cells measured after 48 hrs by SRB assay
MOLT-4 = assay: Growth inhibition of human MOLT-4 cells measured after 48 hrs by SRB assay
HOP-62 = assay: Growth inhibition of human HOP-62 cells measured after 48 hrs by SRB assay
OVCAR-5 = assay: Growth inhibition of human OVCAR-5 cells measured after 48 hrs by SRB assay
MDA-MB-231 = assay: Growth inhibition of human MDA-MB-231 cells measured after 48 hrs by SRB assay
BT-549 = assay: Growth inhibition of human BT-549 cells measured after 48 hrs by SRB assay
UACC-62 = assay: Growth inhibition of human UACC-62 cells measured after 48 hrs by SRB assay
HL-60 = assay: Growth inhibition of human HL-60 cells measured after 48 hrs by SRB assay
NCI-H460 = assay: Growth inhibition of human NCI-H460 cells measured after 48 hrs by SRB assay
PC-3 = assay: Growth inhibition of human PC-3 cells measured after 48 hrs by SRB assay
SF-539 = assay: Growth inhibition of human SF-539 cells measured after 48 hrs by SRB assay
HCT-15 = assay: Growth inhibition of human HCT-15 cells measured after 48 hrs by SRB assay
K562 = assay: Growth inhibition of human K562 cells measured after 48 hrs by SRB assay
DU-145 = assay: Growth inhibition of human DU-145 cells measured after 48 hrs by SRB assay
HCT-116 = assay: Growth inhibition of human HCT-116 cells measured after 48 hrs by SRB assay
786-0 = assay: Growth inhibition of human 786-0 cells measured after 48 hrs by SRB assay
SK-MEL-28 = assay: Growth inhibition of human SK-MEL-28 cells measured after 48 hrs by SRB assay
UACC-257 = assay: Growth inhibition of human UACC-257 cells measured after 48 hrs by SRB assay
A498 = assay: Growth inhibition of human A498 cells measured after 48 hrs by SRB assay
UO-31 = assay: Growth inhibition of human UO-31 cells measured after 48 hrs by SRB assay
NCI-H522 = assay: Growth inhibition of human NCI-H522 cells measured after 48 hrs by SRB assay
U-251 = assay: Growth inhibition of human U-251 cells measured after 48 hrs by SRB assay
COLO 205 = assay: Growth inhibition of human COLO 205 cells measured after 48 hrs by SRB assay
TK-10 = assay: Growth inhibition of human TK-10 cells measured after 48 hrs by SRB assay
OVCAR-8 = assay: Growth inhibition of human OVCAR-8 cells measured after 48 hrs by SRB assay
OVCAR-3 = assay: Growth inhibition of human OVCAR-3 cells measured after 48 hrs by SRB assay
SK-OV-3 = assay: Growth inhibition of human SK-OV-3 cells measured after 48 hrs by SRB assay
SK-MEL-2 = assay: Growth inhibition of human SK-MEL-2 cells measured after 48 hrs by SRB assay
CAKI-1 = assay: Growth inhibition of human CAKI-1 cells measured after 48 hrs by SRB assay
CCRF-CEM = assay: Growth inhibition of human CCRF-CEM cells measured after 48 hrs by SRB assay
SF-268 = assay: Growth inhibition of human SF-268 cells measured after 48 hrs by SRB assay
NCI-H226 = assay: Growth inhibition of human NCI-H226 cells measured after 48 hrs by SRB assay
RXF 393 = assay: Growth inhibition of human RXF 393 cells measured after 48 hrs by SRB assay
HT-29 = assay: Growth inhibition of human HT-29 cells measured after 48 hrs by SRB assay
IGROV-1 = assay: Growth inhibition of human IGROV-1 cells measured after 48 hrs by SRB assay
NCI-H322M = assay: Growth inhibition of human NCI-H322M cells measured after 48 hrs by SRB assay
MCF7 = assay: Growth inhibition of human MCF7 cells measured after 48 hrs by SRB assay
SN12C = assay: Growth inhibition of human SN12C cells measured after 48 hrs by SRB assay
SR = assay: Growth inhibition of human SR cells measured after 48 hrs by SRB assay
SNB-19 = assay: Growth inhibition of human SNB-19 cells measured after 48 hrs by SRB assay
HCC 2998 = assay: Growth inhibition of human HCC 2998 cells measured after 48 hrs by SRB assay
A549 = assay: Growth inhibition of human A549 cells measured after 48 hrs by SRB assay
M14 = assay: Growth inhibition of human M14 cells measured after 48 hrs by SRB assay
T47D = assay: Growth inhibition of human T47D cells measured after 48 hrs by SRB assay

GI50 (MDA-MB-468): > 10000 nM
GI50 (MDA-MB-435): > 10000 nM
GI50 (SK-MEL-5): 5090 nM
GI50 (SW-620): 7060 nM
GI50 (ACHN): 2320 nM
GI50 (NCI-H23): 8310 nM
GI50 (MOLT-4): 5120 nM
GI50 (OVCAR-5): > 10000 nM
GI50 (MDA-MB-231): > 10000 nM
GI50 (BT-549): 5010 nM
GI50 (HL-60): 7370 nM
GI50 (NCI-H460): 3530 nM
GI50 (PC-3): > 10000 nM
GI50 (HCT-15): > 10000 nM
GI50 (K562): > 10000 nM
GI50 (DU-145): 6100 nM
GI50 (HCT-116): 4440 nM
GI50 (786-0): 7330 nM
GI50 (SK-MEL-28): > 10000 nM
GI50 (NCI-H522): 3960 nM
GI50 (U-251): > 10000 nM
GI50 (COLO 205): > 10000 nM
GI50 (OVCAR-8): > 10000 nM
GI50 (OVCAR-3): 4000 nM
GI50 (SK-OV-3): > 10000 nM
GI50 (SK-MEL-2): > 10000 nM
GI50 (CCRF-CEM): 6970 nM
GI50 (NCI-H226): > 10000 nM
GI50 (HT-29): > 10000 nM
GI50 (NCI-H322M): > 10000 nM
GI50 (MCF7): 7710 nM
GI50 (HCC 2998): > 10000 nM
GI50 (A549): 4780 nM
GI50 (T47D): > 10000 nM
SMILES: CC(=O)OC[C@H]1O[C@@H](O[C@@H]2C=C3CC[C@@H]4[C@H](C(=O)C[C@]5(C)[C@@H](c6ccc(=O)oc6)CC[C@]45O)[C@@]3(C)CC2)[C@H](OC(C)=O)[C@@H](OC(C)=O)[C@@H]1OC(C)=O
GI50 (NCI/ADR-RES): > 10000 nM
GI50 (SF-295): 7350 nM
GI50 (HOP-92): > 10000 nM
GI50 (Malme-3M): 9730 nM
GI50 (KM12): > 10000 nM
GI50 (Hs-578T): 3790 nM
GI50 (LOX IMVI): > 10000 nM
GI50 (SNB-75): > 10000 nM
GI50 (HOP-62): 6880 nM
GI50 (UACC-62): > 10000 nM
GI50 (SF-539): 6010 nM
GI50 (UACC-257): > 10000 nM
GI50 (A498): 2890 nM
GI50 (UO-31): 6060 nM
GI50 (TK-10): 6220 nM
GI50 (CAKI-1): 7280 nM
GI50 (SF-268): 5640 nM
GI50 (RXF 393): 2310 nM
GI50 (IGROV-1): > 10000 nM
GI50 (SN12C): 4850 nM
GI50 (SR): > 10000 nM
GI50 (SNB-19): > 10000 nM
GI50 (M14): > 10000 nM

SMILES: C[C@]12C[C@H](O)[C@H]3[C@@H](CCC4=C[C@@H](O[C@@H]5O[C@H](CO)[C@@H](O)[C@H](O)[C@H]5O)CC[C@@]43CO)[C@@]1(O)CC[C@@H]2c1ccc(=O)oc1
GI50 (NCI/ADR-RES): 8 nM
GI50 (SF-295): 11 nM
GI50 (MDA-MB-468): 44 nM
GI50 (HOP-92): 22 nM
GI50 (Malme-3M): 17 nM
GI50 (MDA-MB-435): 33 nM
GI50 (SK-MEL-5): 20 nM
GI50 (KM12): 29 nM
GI50 (Hs-578T): 6 nM
GI50 (SW-620): 17 nM
GI50 (ACHN): 5 nM
GI50 (LOX IMVI): 18 nM
GI50 (SNB-75): 23 nM
GI50 (NCI-H23): 8 nM
GI50 (MOLT-4): 7 nM
GI50 (HOP-62): 6 nM
GI50 (OVCAR-5): 17 nM
GI50 (MDA-MB-231): 53 nM
GI50 (BT-549): 4 nM
GI50 (UACC-62): 25 nM
GI50 (HL-60): 7 nM
GI50 (NCI-H460): 6 nM
GI50 (PC-3): 13 nM
GI50 (SF-539): 3 nM
GI50 (HCT-15): 17 nM
GI50 (K562): 30 nM
GI50 (DU-145): 6 nM
GI50 (HCT-116): 5 nM
GI50 (786-0): 7 nM
GI50 (SK-MEL-28): 37 nM
GI50 (UACC-257): 42 nM
GI50 (A498): 12 nM
GI50 (UO-31): 9 nM
GI50 (NCI-H522): 6 nM
GI50 (U-251): 25 nM
GI50 (COLO 205): 43 nM
GI50 (TK-10): 8 nM
GI50 (OVCAR-8): 15 nM
GI50 (OVCAR-3): 8 nM
GI50 (SK-OV-3): 51 nM
GI50 (SK-MEL-2): 45 nM
GI50 (CAKI-1): 8 nM
GI50 (CCRF-CEM): 7 nM
GI50 (SF-268): 7 nM
GI50 (NCI-H226): 22 nM
GI50 (RXF 393): 5 nM
GI50 (HT-29): 15 nM
GI50 (IGROV-1): 16 nM
GI50 (NCI-H322M): 7 nM
GI50 (MCF7): 9 nM
GI50 (SN12C): 6 nM
GI50 (SR): 24 nM
GI50 (SNB-19): 48 nM
GI50 (HCC 2998): 52 nM
GI50 (A549): 4 nM
GI50 (M14): 31 nM
GI50 (T47D): 24 nM
